According to PMC8268887, “Peptide/β-Peptoid Hybrids with Ultrashort PEG-Like Moieties: Effects on Hydrophobicity, Antibacterial Activity and Hemolytic Properties” (International Journal of Molecular Sciences, 2021):
In brackets after ≈: the same amount, converted by molar mass. Read-outs that look alike come from different tables or passages of the source.

Experiments:
A. baumannii ATCC 19606 = type: cell-based, Acinetobacter baumannii; details: ATCC 19606, 20 h
Experimental: (§1) MIC values of the peptidomimetics were evaluated by using the modified Hancock lab protocol in non-binding polystyrene microtiter plates. Bacterial suspensions of ~5 × 10^5 CFU/mL in Mueller-Hinton broth (Difco, Sparks, MD, USA) were prepared with Mg^2+ and Ca^2+ concentrations of 4 mg/L each. The compounds were dissolved in H2O and diluted in 0.01% acetic acid, 0.2% BSA (final concentration). Aliquots (11 µL) of test compounds were then transferred to wells containing bacterial suspensions (100 µL). Low-binding sterile tubes and tips (Axygen, Union City, CA, USA) were used for preparation and transfer of the solutions of the compounds. Following incubation for 20 h of the covered plates at 35 °C (±2 °C) with circular shaking at 180 rpm, the MICs were read.

A. baumannii NMI 3658/17 = type: cell-based, Acinetobacter baumannii; details: NMI 3658/17, 20 h
Experimental: as §1

[1] = Determination of hemolytic activity; type: cell-based; details: red blood cell suspension in PBS buffer, human red blood cells at 400 µg/mL, 37 °C
Experimental: The lysis of human red blood cells was measured almost as previously described, albeit with modifications. In brief, a suspension of freshly drawn human red blood cells (hRBCs) was washed three times with PBS buffer and centrifuged two times for 5 min at 2500 rpm. A two-fold serial dilution of compounds in PBS buffer was prepared. Plates (conical-bottomed 96-well plates) with three replicate wells per dilution, each containing 1% red blood cell suspension, were prepared and dosed with the test compound to achieve a final concentration of 400 μg/mL in a total volume of 100 μL. The plates were incubated (37 °C) for 60 min with mild agitation, and then the cells were pelleted by centrifugation at 1500 rpm for 5 min. The supernatants (50 μL) were then transferred to a fresh 96-well plate, and the concentration of hemoglobin was detected by measuring the OD at 405 nm. The OD of cells incubated with 1% SDS defined 100% hemolysis, while the OD of cells incubated with PBS buffer defined 0% hemolysis. The concentration tested was 400 μg/mL (only average values are stated in Table 5). The percent hemolysis was calculated by using the formula:(3) Hemolysis (%)=100×[Asample−Aneg.control/Apos.control−Aneg.control]

E. faecalis ATCC 29212 = type: cell-based; details: ATCC 29212, 20 h
Experimental: as §1

K. pneumoniae ATCC 13883 = type: cell-based; details: ATCC 13883, 20 h
Experimental: as §1

S. aureus ATCC 29213 = type: cell-based, Staphylococcus aureus; details: ATCC 29213, 20 h
Experimental: as §1

[2] = Hydrophobicity by retention in analytical RP-HPLC (% MeCN at peak elution); type: physicochemical; details: for % MeCN at Elution, Aeris Peptide: Phenomenex Aeris Peptide XB-C18 column; for % MeCN at Elution, Aeris Peptide / % MeCN at Elution, Luna Omega / % MeCN at Elution, Supelco Discovery: gradient 0→60% B during 15 min; for % MeCN at Elution, Luna: Phenomenex Luna C18(2) column, RP-HPLC gradient 0→60% B during 15 min, relative hydrophobicity; for % MeCN at Elution, Luna Omega: Phenomenex Luna Omega Polar C18 column; for % MeCN at Elution, Supelco Discovery: Supelco Discovery BIO Wide pore C18 column
Experimental: For each peptide/β-peptoid hybrid oligomer, the retention time in RP-HPLC was measured on four different columns (details shown in Table 2): Phenomenex Luna C18(2) column (recommended for hydrophobic compounds [49]), Phenomenex Luna Omega Polar C18 column (recommended for both very polar and non-polar compounds [50]) as well as Phenomenex Aeris Peptide XB-C18 [51] and Sigma-Aldrich Supelco Discovery BIO Wide pore C18 [52] columns, which both are recommended for analysis of peptides. The retention times of the compounds on each column were used to calculate the acetonitrile concentration at peak elution (denoted merely as % MeCN; Table 1). As expected, the % MeCN for each compound varied somewhat between the four columns.
Starting materials and solvents were acquired from commercial suppliers (Iris Biotech, Markredwitz, Germany; Fluorochem, Hadfield, UK; and Merck, Darmstadt, Germany) and used without further purification. Water used for analytical and preparative high-performance liquid chromatography (HPLC) was filtered through a 0.22-μm capsule filter using an Evoqua LaboStar Pro TWF UV system. Purity and retention time of each peptidomimetic were determined by analytical HPLC by using a Phenomenex Luna Omega Polar C18 column (150 × 4.6 mm; particle size: 3 μm; pore size: 100 Å) on a Shimadzu Prominence and Shimadzu Nexera system using an aqueous acetonitrile (MeCN, VWR, Søborg, Denmark) gradient with 0.1% trifluoroacetic acid (TFA, Iris Biotech, Markredwitz, Germany) added (eluent A: 5:95 MeCN–H2O + 0.1% TFA, eluent B: 95:5 MeCN–H2O + 0.1% TFA); a flow rate of 0.8 mL/min was used. For elution of peptidomimetics, a linear gradient of 0% to 60% B during 15 min was used with UV detection at λ = 220 nm. […] Retention time of each peptidomimetic was also determined by using a Phenomenex Luna C18(2) column (150 × 4.6 mm; particle size: 3 μm; pore size: 100 Å), a Phenomenex Aeris Peptide XB-C18 column (150 × 4.6 mm; particle size: 3.6 μm; pore size: 100 Å), and a Sigma-Aldrich Supelco Discovery BIO Wide pore C18 column (150 × 4.6 mm, particle size: 3 µm; pore size: 300 Å). For each peptidomimetic, the percentage of MeCN at peak elution was calculated from the retention time by using the following formula:(1) %MeCN =0.95 (0.6Rt/15 min)+0.05 (1−0.6Rt/15 min)

[3] = test system: P. aeruginosa NMI 7197/19; type: cell-based, Pseudomonas aeruginosa; details: NMI 7197/19, 20 h
Experimental: as §1

P. aeruginosa PAO1 = type: cell-based, Pseudomonas aeruginosa
Experimental: as §1

E. coli ATCC 25922 = type: cell-based, Escherichia coli; details: ATCC 25922, 20 h
Experimental: as §1

E. coli NMI 3898/15 = type: cell-based, Escherichia coli; details: NMI 3898/15, 20 h
Experimental: as §1

E. coli NMI 3371/16 = type: cell-based, Escherichia coli; details: NMI 3371/16, 20 h
Experimental: as §1

Compound | MIC, AB (A. baumannii ATCC 19606) | MIC, A. baumannii NMI 3658/17 (A. baumannii NMI 3658/17) | hemolysis at 60 min [1] | MIC, EF (E. faecalis ATCC 29212) | MIC, KP (K. pneumoniae ATCC 13883) | MIC, SA (S. aureus ATCC 29213) | % MeCN at Elution, Aeris Peptide [2] | % MeCN at Elution, Luna [2] | % MeCN at Elution, Luna Omega [2] | % MeCN at Elution, Supelco Discovery [2] | MIC, P. aeruginosa NMI 7197/19 [3] | MIC, PA (P. aeruginosa PAO1; PAO1, 20 h) | MIC, EC (E. coli ATCC 25922) | MIC, E. coli NMI 3898/15 (E. coli NMI 3898/15) | MIC, E. coli NMI 3371/16 (E. coli NMI 3371/16) | MIC, PA (P. aeruginosa PAO1; P. aeruginosa PAO1 (WT))
NCCCC[C@H](NC(=O)CCN(Cc1ccc(F)cc1)C(=O)[C@H](CCCCN)NC(=O)CCN(Cc1ccc(F)cc1)C(=O)[C@H](CCCCN)NC(=O)CCN(Cc1ccc(F)cc1)C(=O)[C@H](CCCCN)NC(=O)CCN(Cc1ccc(F)cc1)C(=O)[C@H](CCCCN)NC(=O)CCN(Cc1ccc(F)cc1)C(=O)[C@H](CCCCN)NC(=O)COCCOCCN)C(=O)N(CCC(N)=O)Cc1ccc(F)cc1 [Compound 2, H-sPEG2-[X]6-NH2] | 4 mg/L (≈ 1.99 µM) | 4 mg/L (≈ 1.99 µM) | 2.4% | >64 mg/L | >64 mg/L | 32 to 64 mg/L | 39.4 % MeCN | 41.4 % MeCN | 41.9 % MeCN | 41.5 % MeCN | >64 mg/L | 32 mg/L (≈ 15.9 µM) | 8 mg/L (≈ 3.99 µM) | 16 mg/L (≈ 7.97 µM) | 8 mg/L (≈ 3.99 µM) | –
NCCCC[C@H](NC(=O)CCN(Cc1ccc(F)cc1)C(=O)[C@H](CCCCN)NC(=O)CCN(Cc1ccc(F)cc1)C(=O)[C@H](CCCCN)NC(=O)CCN(Cc1ccc(F)cc1)C(=O)[C@H](CCCCN)NC(=O)CCN(Cc1ccc(F)cc1)C(=O)[C@H](CCCCN)NC(=O)CCN(Cc1ccc(F)cc1)C(=O)[C@H](CCCCN)NC(=O)CCOCCOCCOCCOCCN)C(=O)N(CCC(N)=O)Cc1ccc(F)cc1 [Compound 3, H-sPEG4-[X]6-NH2] | 4 to 8 mg/L | 4 to 8 mg/L | 8.1% | >64 mg/L | >64 mg/L | – | 39.6 % MeCN | 41.9 % MeCN | 42.4 % MeCN | 42.6 % MeCN | >64 mg/L | 32 to 64 mg/L | 8 mg/L (≈ 3.79 µM) | 16 mg/L (≈ 7.59 µM) | 8 mg/L (≈ 3.79 µM) | –
NCCCC[C@H](NC(=O)CCN(Cc1ccc(F)cc1)C(=O)[C@H](CCCCN)NC(=O)CCN(Cc1ccc(F)cc1)C(=O)[C@H](CCCCN)NC(=O)CCN(Cc1ccc(F)cc1)C(=O)[C@H](CCCCN)NC(=O)CCN(Cc1ccc(F)cc1)C(=O)[C@H](CCCCN)NC(=O)CCN(Cc1ccc(F)cc1)C(=O)[C@H](CCCCN)NC(=O)COCCOCCN)C(=O)N(CCC(=O)NCCOCCOCC(N)=O)Cc1ccc(F)cc1 [Compound 4, H-sPEG2-[X]6-sPEG2-NH2] | 4 mg/L (≈ 1.86 µM) | 4 to 8 mg/L | 5.4% | >64 mg/L | >64 mg/L | >64 mg/L | 39.2 % MeCN | 41.3 % MeCN | 42.1 % MeCN | 41.4 % MeCN | >64 mg/L | 16 mg/L (≈ 7.44 µM) | 8 to 16 mg/L | 16 to 32 mg/L | 8 to 16 mg/L | –
NCCCC[C@H](NC(=O)CCN(Cc1ccc(F)cc1)C(=O)[C@H](CCCCN)NC(=O)CCN(Cc1ccc(F)cc1)C(=O)[C@H](CCCCN)NC(=O)CCN(Cc1ccc(F)cc1)C(=O)[C@H](CCCCN)NC(=O)CCN(Cc1ccc(F)cc1)C(=O)[C@H](CCCCN)NC(=O)CCN(Cc1ccc(F)cc1)C(=O)[C@H](CCCCN)NC(=O)CCOCCOCCOCCOCCN)C(=O)N(CCC(=O)NCCOCCOCCOCCOCCC(N)=O)Cc1ccc(F)cc1 [Compound 5, H-sPEG4-[X]6-sPEG4-NH2] | – | 16 mg/L (≈ 6.79 µM) | 6.4% | >64 mg/L | >64 mg/L | >64 mg/L | 40.0 % MeCN | 42.2 % MeCN | 43.2 % MeCN | 42.5 % MeCN | >64 mg/L | – | 16 mg/L (≈ 6.79 µM) | 32 mg/L (≈ 13.6 µM) | 8 to 16 mg/L | > 64 mg/L
